In the NIST ThermoML archive (doi:10.1021/acs.jced.7b00099):
“And” between values parts separate entries of the source, which are not always exact repeats. Identical values can stand only once. ± gives the expanded uncertainty stated by the source.

Details: Liquid, Closed cell (Static) method

## CCCCCCCCCCCCCCCC(=O)OC [methyl hexadecanoate]
373.15 K
  vapor or sublimation pressure: 0.0158 ± 0.0008 kPa
383.15 K
  vapor or sublimation pressure: 0.0294 ± 0.0012 kPa
393.15 K
  vapor or sublimation pressure: 0.0535 ± 0.002 kPa
403.15 K
  vapor or sublimation pressure: 0.095 ± 0.003 kPa
413.15 K
  vapor or sublimation pressure: 0.1644 ± 0.0055 kPa
423.15 K
  vapor or sublimation pressure: 0.2789 ± 0.009 kPa
433.15 K
  vapor or sublimation pressure: 0.4635 ± 0.015 kPa
443.15 K
  vapor or sublimation pressure: 0.756 ± 0.01 kPa
453.15 K
  vapor or sublimation pressure: 1.21 ± 0.016 kPa

## CCCCCCCCCCCC(=O)OC [methyl dodecanoate]
353.15 K
  vapor or sublimation pressure: 0.0644 ± 0.0024 kPa
363.15 K
  vapor or sublimation pressure: 0.1217 ± 0.0043 kPa
373.15 K
  vapor or sublimation pressure: 0.2212 ± 0.0072 kPa
383.15 K
  vapor or sublimation pressure: 0.388 ± 0.012 kPa
393.15 K
  vapor or sublimation pressure: 0.657 ± 0.009 kPa
403.15 K
  vapor or sublimation pressure: 1.08 ± 0.014 kPa
413.15 K
  vapor or sublimation pressure: 1.728 ± 0.011 kPa
423.15 K
  vapor or sublimation pressure: 2.694 ± 0.015 kPa
433.15 K
  vapor or sublimation pressure: 4.104 ± 0.019 kPa

## CCCCCCCCCCCCCC(=O)OC [methyl tetradecanoate]
353.15 K
  vapor or sublimation pressure: 0.0133 ± 0.0007 kPa
363.15 K
  vapor or sublimation pressure: 0.0267 ± 0.0011 kPa
373.15 K
  vapor or sublimation pressure: 0.0516 ± 0.0019 kPa
383.15 K
  vapor or sublimation pressure: 0.0959 ± 0.0034 kPa
393.15 K
  vapor or sublimation pressure: 0.1723 ± 0.0057 kPa
403.15 K
  vapor or sublimation pressure: 0.3003 ± 0.0096 kPa
413.15 K
  vapor or sublimation pressure: 0.509 ± 0.016 kPa
423.15 K
  vapor or sublimation pressure: 0.839 ± 0.011 kPa
433.15 K
  vapor or sublimation pressure: 1.35 ± 0.01 kPa
443.15 K
  vapor or sublimation pressure: 2.123 ± 0.013 kPa
453.15 K
  vapor or sublimation pressure: 3.27 ± 0.016 kPa

## CCCCCCCCCCCCCC [tetradecane]
351.75 K
  vapor or sublimation pressure: 0.124 ± 0.004 kPa
353.15 K
  vapor or sublimation pressure: 0.1355 ± 0.0046 kPa and 0.1354 ± 0.0046 kPa
361.8 K
  vapor or sublimation pressure: 0.232 ± 0.008 kPa
361.89 K
  vapor or sublimation pressure: 0.232 ± 0.008 kPa
363.15 K
  vapor or sublimation pressure: 0.2517 ± 0.0081 kPa
371.91 K
  vapor or sublimation pressure: 0.422 ± 0.013 kPa
373.15 K
  vapor or sublimation pressure: 0.4469 ± 0.014 kPa and 0.4472 ± 0.014 kPa
381.93 K
  vapor or sublimation pressure: 0.717 ± 0.009 kPa
382.07 K
  vapor or sublimation pressure: 0.716 ± 0.009 kPa
383.15 K
  vapor or sublimation pressure: 0.762 ± 0.01 kPa and 0.763 ± 0.01 kPa
391.95 K
  vapor or sublimation pressure: 1.186 ± 0.015 kPa
392 K
  vapor or sublimation pressure: 1.186 ± 0.015 kPa
393.15 K
  vapor or sublimation pressure: 1.254 ± 0.016 kPa and 1.255 ± 0.016 kPa
402.74 K
  vapor or sublimation pressure: 1.947 ± 0.013 kPa
403.15 K
  vapor or sublimation pressure: 1.998 ± 0.013 kPa
412.69 K
  vapor or sublimation pressure: 3.029 ± 0.016 kPa
413.15 K
  vapor or sublimation pressure: 3.09 ± 0.016 kPa and 3.086 ± 0.016 kPa
422.55 K
  vapor or sublimation pressure: 4.545 ± 0.021 kPa
423.15 K
  vapor or sublimation pressure: 4.652 ± 0.021 kPa and 4.642 ± 0.021 kPa
432.39 K
  vapor or sublimation pressure: 6.661 ± 0.028 kPa
433.15 K
  vapor or sublimation pressure: 6.836 ± 0.029 kPa and 6.812 ± 0.028 kPa
442.49 K
  vapor or sublimation pressure: 9.461 ± 0.041 kPa
443.15 K
  vapor or sublimation pressure: 9.776 ± 0.042 kPa
452.49 K
  vapor or sublimation pressure: 13.46 ± 0.053 kPa
453.15 K
  vapor or sublimation pressure: 13.75 ± 0.054 kPa
